# Data taken from PubChem BioAssay AID330 (DTP/NCI, 2004).
# Values joined by “and” are separate entries in the source; they are usually repeats but may differ in a detail not shown here. Equal entries are not always repeated. Inconclusive results and toxic doses are left out.
# Tested on: P388 leukemia ip, CD2F1 mice, survival T/C
# Experiment: NCI In Vivo Anticancer Drug Screen. Data for tumor model P388 Leukemia (intraperitoneal) in CD2F1 (CDF1) mice
# Settings: endpoint: median survival time, higher = longer survival
# Outline: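 Mice carrying the transplanted tumor received test compound or vehicle. Survival was recorded in each group, and the value is the treated-group measurement divided by that of the vehicle-treated control group.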
# [1] = dose: 50.0 mg/kg/injection, schedule: Q01DX009 (ip), vehicle: saline
# [2] = dose: 100.0 mg/kg/injection, schedule: Q01DX009 (ip), vehicle: saline
# [3] = dose: 200.0 mg/kg/injection, schedule: Q01DX009 (ip), vehicle: saline
# [4] = dose: 50.0 mg/kg/injection, schedule: Q01DX005 (ip), vehicle: saline with Tween-80
# [5] = dose: 100.0 mg/kg/injection, schedule: Q01DX005 (ip), vehicle: saline with Tween-80
# [6] = dose: 200.0 mg/kg/injection, schedule: Q04DX003 (ip), vehicle: saline with Tween-80
# [7] = dose: 400.0 mg/kg/injection, schedule: Q04DX003 (ip), vehicle: saline with Tween-80
# [8] = dose: 50.0 mg/kg/injection, schedule: Q01DX009 (ip), vehicle: acetone
# [9] = dose: 100.0 mg/kg/injection, schedule: Q01DX009 (ip), vehicle: acetone
# [10] = dose: 50.0 mg/kg/injection, schedule: Q01DX009 (ip), vehicle: Klucel (hydroxypropylcellulose) (HPC)
# [11] = dose: 100.0 mg/kg/injection, schedule: Q01DX009 (ip), vehicle: Klucel (hydroxypropylcellulose) (HPC)
# [12] = dose: 200.0 mg/kg/injection, schedule: Q01DX009 (ip), vehicle: Klucel (hydroxypropylcellulose) (HPC)
# [13] = dose: 12.5 mg/kg/injection, schedule: Q01DX009 (ip), vehicle: Klucel (hydroxypropylcellulose) (HPC)
# [14] = dose: 25.0 mg/kg/injection, schedule: Q01DX009 (ip), vehicle: Klucel (hydroxypropylcellulose) (HPC)
# [15] = dose: 50.0 mg/kg/injection, schedule: Q01DX005 (ip), vehicle: Klucel (hydroxypropylcellulose) (HPC)
# [16] = dose: 100.0 mg/kg/injection, schedule: Q01DX005 (ip), vehicle: Klucel (hydroxypropylcellulose) (HPC)
# [17] = dose: 60.0 mg/kg/injection, schedule: Q01DX005 (ip), vehicle: Klucel (hydroxypropylcellulose) (HPC)
# [18] = dose: 120.0 mg/kg/injection, schedule: Q01DX005 (ip), vehicle: Klucel (hydroxypropylcellulose) (HPC)
# [19] = dose: 240.0 mg/kg/injection, schedule: Q01DX005 (ip), vehicle: Klucel (hydroxypropylcellulose) (HPC)
# [20] = dose: 200.0 mg/kg/injection, schedule: Q01DX005 (ip), vehicle: Klucel (hydroxypropylcellulose) (HPC)
# [21] = dose: 200.0 mg/kg/injection, schedule: Q01DX005 (ip), vehicle: saline with Tween-80
# [22] = dose: 100.0 mg/kg/injection, schedule: Q01DX001 (ip), vehicle: Klucel (hydroxypropylcellulose) (HPC)
# [23] = dose: 200.0 mg/kg/injection, schedule: Q01DX001 (ip), vehicle: Klucel (hydroxypropylcellulose) (HPC)
structure (smiles),measurement,setting,value
Cc1cc(Cl)ccc1N=Cc1cccs1,T/C,[1],90 % of control
same,T/C,[2],90 % of control
same,T/C,[3],89 % of control
CC1Cc2ccc(OCCN(C)C)cc2C1=O (stereo not given),T/C,[4],98 % of control
same,T/C,[5],99 % of control
CS(=N)(=O)c1ccccc1N (stereo not given),T/C,"dose: 100.0 mg/kg/injection, schedule: Q04DX003 (ip), vehicle: saline with Tween-80",98 % of control
same,T/C,[6],99 % of control
same,T/C,[7],103 % of control
Cc1ccn2ccnc2c1,T/C,[8],102 % of control
same,T/C,[9],113 % of control
COc1cccc2c1C(=O)c1c(O)c3c(c(O)c1C2=O)CC(O)(C(C)=O)CC3OC1CC([N+](C)(C)C)C(O)C(C)O1 (stereo not given),T/C,"dose: 1.56 mg/kg/injection, schedule: Q01DX009 (ip), vehicle: water",101 % of control
same,T/C,"dose: 3.12 mg/kg/injection, schedule: Q01DX009 (ip), vehicle: water",90 % of control
same,T/C,"dose: 3.13 mg/kg/injection, schedule: Q01DX009 (ip), vehicle: water",113 % of control
same,T/C,"dose: 6.25 mg/kg/injection, schedule: Q01DX009 (ip), vehicle: water",118 % of control
same,T/C,"dose: 12.5 mg/kg/injection, schedule: Q01DX009 (ip), vehicle: water",110 % of control and 112 % of control
same,T/C,"dose: 25.0 mg/kg/injection, schedule: Q01DX009 (ip), vehicle: water",111 % of control and 120 % of control
CC(C)(C)c1ccc(NC(=O)Oc2ccccc2)cc1,T/C,[10],102 % of control
same,T/C,[11],105 % of control
same,T/C,[12],102 % of control
CCn1c(=O)c2[nH]c(Br)nc2n(CC)c1=O,T/C,[13],124 % of control
same,T/C,"dose: 16.0 mg/kg/injection, schedule: Q01DX009 (ip), vehicle: Klucel (hydroxypropylcellulose) (HPC)",106 % of control
same,T/C,[14],103 % of control and 97 % of control
same,T/C,"dose: 32.0 mg/kg/injection, schedule: Q01DX009 (ip), vehicle: Klucel (hydroxypropylcellulose) (HPC)",104 % of control
same,T/C,[10],105 % of control and 95 % of control
same,T/C,"dose: 64.0 mg/kg/injection, schedule: Q01DX009 (ip), vehicle: Klucel (hydroxypropylcellulose) (HPC)",114 % of control
same,T/C,[11],98 % of control and 103 % of control
O=C(Nc1ccc(N=Nc2ccccc2)cc1)SCCO,T/C,[4],102 % of control
same,T/C,[5],108 % of control
OCCN(CCO)CCCCCCN(CCO)CCO,T/C,"dose: 25.0 mg/kg/injection, schedule: Q01DX009 (ip), vehicle: saline",98 % of control
same,T/C,[1],104 % of control
same,T/C,[2],107 % of control
same,T/C,[3],113 % of control
COc1cccc(CN2CCN(N)CC2)c1,T/C,"dose: 12.5 mg/kg/injection, schedule: Q01DX005 (ip), vehicle: Klucel (hydroxypropylcellulose) (HPC)",100 % of control
same,T/C,"dose: 25.0 mg/kg/injection, schedule: Q01DX005 (ip), vehicle: Klucel (hydroxypropylcellulose) (HPC)",104 % of control
same,T/C,[15],107 % of control
same,T/C,[16],100 % of control
O=C(NC1(N2CCOCC2)CC1)c1ccc(Cl)cc1,T/C,[17],88 % of control
same,T/C,[18],103 % of control
same,T/C,[19],103 % of control
COc1ccccc1P(C)(=O)c1ccccc1 (stereo not given),T/C,[15],102 % of control
same,T/C,[16],103 % of control
same,T/C,[20],98 % of control
COc1ccc(/C=C/c2nc(Nc3ccc(S(N)(=O)=O)cc3)c3ccccc3n2)cc1,T/C,[8],102 % of control
same,T/C,[9],99 % of control
same,T/C,"dose: 200.0 mg/kg/injection, schedule: Q01DX009 (ip), vehicle: acetone",96 % of control
O=P(Oc1ccc(OP(=O)(N2CC2)N2CC2)cc1)(N1CC1)N1CC1,T/C,"dose: 100.0 mg/kg/injection, schedule: Q01DX009 (ip), vehicle: saline with Tween-80",154 % of control
same,T/C,"dose: 200.0 mg/kg/injection, schedule: Q01DX009 (ip), vehicle: saline with Tween-80",181 % of control
same,T/C,[6],154 % of control
same,T/C,"dose: 264.0 mg/kg/injection, schedule: Q04DX003 (ip), vehicle: saline with Tween-80",166 % of control
same,T/C,[7],166 % of control
CCOS(=O)c1ccc(C)cc1 (stereo not given),T/C,[13],98 % of control
same,T/C,[14],98 % of control
same,T/C,[10],105 % of control and 110 % of control
CC(SC(C)C(=O)N/N=C/c1c[nH]c2ccccc12)C(=O)N/N=C\c1c[nH]c2ccccc12 (stereo not given),T/C,[4],92 % of control
same,T/C,[5],93 % of control
same,T/C,[21],93 % of control
CC(C)=NNC1=NC(CC(C)C)P(=O)(NCCCCCCNP2(=O)SC(NN=C(C)C)=NC2CC(C)C)S1 (stereo not given),T/C,[17],97 % of control
same,T/C,[18],103 % of control
same,T/C,[19],95 % of control
CCOC(=O)C(N=Nc1ccccc1)/N=N\c1nn[nH]n1 (stereo not given),T/C,"dose: 50.0 mg/kg/injection, schedule: Q01DX001 (ip), vehicle: Klucel (hydroxypropylcellulose) (HPC)",91 % of control
same,T/C,[22],91 % of control
same,T/C,[23],91 % of control
CCOC(=O)CCCCCCCCNC(=S)N1c2c(nc(N)[nH]c2=O)NCC1CNc1ccc(C(=O)NC(CCC(=O)O)C(=O)O)cc1 (stereo not given),T/C,[10],90 % of control
same,T/C,[11],110 % of control
same,T/C,[12],99 % of control
Cn1c(N=P(c2ccccc2)(c2ccccc2)c2ccccc2)cc(=O)n(C)c1=O,T/C,[17],101 % of control
same,T/C,[18],102 % of control
same,T/C,[19],101 % of control
CC1=Nc2c(C)noc2CC(c2ccccc2O)C1 (stereo not given),T/C,[15],101 % of control
same,T/C,[16],106 % of control
CC(CO)CCC(O)C(C)(O)C1CCC2(O)C3=CC(=O)C4CC(O)C(O)CC4(C)C3CCC12C (stereo not given),T/C,"dose: 1.25 mg/kg/injection, schedule: Q01DX005 (ip), vehicle: Klucel (hydroxypropylcellulose) (HPC)",102 % of control
same,T/C,"dose: 2.5 mg/kg/injection, schedule: Q01DX005 (ip), vehicle: Klucel (hydroxypropylcellulose) (HPC)",97 % of control
same,T/C,"dose: 5.0 mg/kg/injection, schedule: Q01DX005 (ip), vehicle: Klucel (hydroxypropylcellulose) (HPC)",98 % of control
same,T/C,"dose: 10.0 mg/kg/injection, schedule: Q01DX005 (ip), vehicle: Klucel (hydroxypropylcellulose) (HPC)",100 % of control
same,T/C,"dose: 20.0 mg/kg/injection, schedule: Q01DX005 (ip), vehicle: Klucel (hydroxypropylcellulose) (HPC)",100 % of control
same,T/C,"dose: 40.0 mg/kg/injection, schedule: Q01DX005 (ip), vehicle: Klucel (hydroxypropylcellulose) (HPC)",100 % of control
same,T/C,"dose: 80.0 mg/kg/injection, schedule: Q01DX005 (ip), vehicle: Klucel (hydroxypropylcellulose) (HPC)",98 % of control
CC(=O)/C(=C\c1ccc(O)cc1)C(=O)CCN(C)C,T/C,[4],108 % of control
same,T/C,[5],112 % of control
same,T/C,[21],112 % of control
CC(=O)OCC1OC(OC(C)=O)C(NC(=O)C(C)NC(=O)OCc2ccccc2)C(OC(C)=O)C1OC(C)=O (stereo not given),T/C,"dose: 12.5 mg/kg/injection, schedule: Q01DX009 (ip), vehicle: other",99 % of control
same,T/C,"dose: 25.0 mg/kg/injection, schedule: Q01DX009 (ip), vehicle: other",104 % of control
same,T/C,"dose: 50.0 mg/kg/injection, schedule: Q01DX009 (ip), vehicle: other",113 % of control
same,T/C,"dose: 100.0 mg/kg/injection, schedule: Q01DX009 (ip), vehicle: other",104 % of control
same,T/C,"dose: 200.0 mg/kg/injection, schedule: Q01DX009 (ip), vehicle: other",92 % of control
COc1ccc(OC)c2c(C)c(C)c(Cl)nc12,T/C,[22],92 % of control
same,T/C,[23],107 % of control
same,T/C,"dose: 400.0 mg/kg/injection, schedule: Q01DX001 (ip), vehicle: Klucel (hydroxypropylcellulose) (HPC)",95 % of control
O=C(O)CCNC1=CC(=O)c2ccccc2C1=O,T/C,[10],102 % of control
same,T/C,[11],110 % of control
O=C(NC(Cc1ccc(I)cc1)C(=O)O)c1ccc(Br)cc1 (stereo not given),T/C,"dose: 12.5 mg/kg/injection, schedule: Q01DX005 (ip), vehicle: sodium bicarbonate",104 % of control
same,T/C,"dose: 25.0 mg/kg/injection, schedule: Q01DX005 (ip), vehicle: sodium bicarbonate",100 % of control
same,T/C,[15],98 % of control
same,T/C,"dose: 50.0 mg/kg/injection, schedule: Q01DX005 (ip), vehicle: sodium bicarbonate",94 % of control
same,T/C,[16],98 % of control
same,T/C,"dose: 100.0 mg/kg/injection, schedule: Q01DX005 (ip), vehicle: sodium bicarbonate",90 % of control and 94 % of control
same,T/C,[20],101 % of control
O=C(Nc1ccc2c(c1)oc(=O)c1ccccc12)C(Cl)Cl,T/C,[4],96 % of control
same,T/C,[5],98 % of control
same,T/C,[21],89 % of control
